In the assay the test system is TREM-1. Put plainly: NF-kB activity measurement (nuclear p50/p65 ELISA) in neutrophils. Conditions: LPS 0.1 μg/mL with or without αTREM-1; peptide 30 μg/mL. The format is cell-based, human. Here is the method:
(C) NF-κB nuclear translocation: ELISA of nuclear p50 and p65 NF-kB subunits of neutrophils treated for 2 hours.
Stimulated cells were collected, nuclear extracts obtained by nuclear extraction kit and NFkB activity measured with human p50/p65 combo transcription factor assay kit (Cayman Chemical) following the manufacturers' instructions.

Regarding “LQEEDAGEYGCMVDGAR (listed as Homo sapiens) [LR17]”, the NF-κB translocation result is “decreased”.
